Source: PMC11971462, “Generation and validation of a novel multitarget small molecule in glioblastoma” (Cell Death & Disease, 2025)

System: GNS166 cells
Test: Label-free proteomics differential expression
Type: cell-based, human
Method: Proteomic studies were performed by the Proteomics Facility of the CIC bioGUNE by label-free relative quantification on nLC MS/MS. […] In both approaches, the top 20 enriched terms were plotted and the pathways were clustered using divisive hierarchical clustering based on pairwise Jaccard distances.

[1] = label-free proteomics, sheet DDI Prot

Question: What does the source list for `C#CCN(Cc1cc2cc(OCCCN3CCCCC3)ccc2n1S(=O)(=O)c1ccccc1)C(=O)CCCCCCC(=O)NO` [DDI]?
Answer: Direction of BIEA_HUMAN (P53004, GN=BLVRA) protein [1]: Up; Direction of CASP3_HUMAN (P42574, GN=CASP3) protein [1]: Up; Direction of COEA1_HUMAN (Q05707, GN=COL14A1) protein [1]: Up; Direction of GSH1_HUMAN (P48506, GN=GCLC) protein [1]: Up; Direction of LKHA4_HUMAN (P09960, GN=LTA4H) protein [1]: Up; Direction of NDUAC_HUMAN (Q9UI09, GN=NDUFA12) protein [1]: Up; Direction of PGPS1_HUMAN (Q32NB8, GN=PGS1) protein [1]: Up; Direction of PTSS1_HUMAN (P48651, GN=PTDSS1) protein [1]: Up; Direction of RETST_HUMAN (Q6NUM9, GN=RETSAT) protein [1]: Up; Direction of WDR47_HUMAN (O94967, GN=WDR47) protein [1]: Up; Direction of YIPF5_HUMAN (Q969M3, GN=YIPF5) protein [1]: Up; LogFC of PGPS1_HUMAN (Q32NB8, GN=PGS1) protein (label-free proteomics, sheet DDI Prot, p value 0.0469656): 1.405; LogFC of BIEA_HUMAN (P53004, GN=BLVRA) protein (label-free proteomics, sheet DDI Prot, p value 0.0475587): 0.7997; LogFC of GSH1_HUMAN (P48506, GN=GCLC) protein (label-free proteomics, sheet DDI Prot, p value 0.0480187): 1.55; LogFC of WDR47_HUMAN (O94967, GN=WDR47) protein (label-free proteomics, sheet DDI Prot, p value 0.0482259): 1.18; LogFC of LKHA4_HUMAN (P09960, GN=LTA4H) protein (label-free proteomics, sheet DDI Prot, p value 0.0482636): 0.5863; LogFC of CASP3_HUMAN (P42574, GN=CASP3) protein (label-free proteomics, sheet DDI Prot, p value 0.0487326): 0.743; LogFC of YIPF5_HUMAN (Q969M3, GN=YIPF5) protein (label-free proteomics, sheet DDI Prot, p value 0.049075): 0.5348; LogFC of NDUAC_HUMAN (Q9UI09, GN=NDUFA12) protein (label-free proteomics, sheet DDI Prot, p value 0.0492119): 0.6479; LogFC of COEA1_HUMAN (Q05707, GN=COL14A1) protein (label-free proteomics, sheet DDI Prot, p value 0.0493344): 0.8788; LogFC of RETST_HUMAN (Q6NUM9, GN=RETSAT) protein (label-free proteomics, sheet DDI Prot, p value 0.049447): 0.7532; LogFC of PTSS1_HUMAN (P48651, GN=PTDSS1) protein (label-free proteomics, sheet DDI Prot, p value 0.0494892): 0.7741; Direction CNOT1_HUMAN (protein A5YKK6): Down; LogFC CNOT1_HUMAN (protein A5YKK6): -0.5343; Direction POTEM_HUMAN (protein A6NI47): Down; LogFC POTEM_HUMAN (protein A6NI47): -1.6004; LogFC BACH_HUMAN (protein O00154 GN=ACOT7): 0.4908; LogFC STXB3_HUMAN (protein O00186 GN=STXBP3): -0.9203; Direction P3C2A_HUMAN (protein O00443): Down; LogFC P3C2A_HUMAN (protein O00443): -0.6873; LogFC SDCB1_HUMAN (protein O00560 GN=SDCBP): 2.446; Direction DDX3X_HUMAN (protein O00571): Down; LogFC DDX3X_HUMAN (protein O00571): -0.4203; LogFC ACOD_HUMAN (protein O00767 GN=SCD): 1.2881; Direction ARI1A_HUMAN (protein O14497): Down; LogFC ARI1A_HUMAN (protein O14497): -1.314; LogFC TOR1A_HUMAN (protein O14656 GN=TOR1A): -0.6936; Direction ANM5_HUMAN (protein O14744): Down; LogFC ANM5_HUMAN (protein O14744): -0.2326; Direction CHK1_HUMAN (protein O14757): Down; LogFC CHK1_HUMAN (protein O14757): -0.9245; LogFC GIPC1_HUMAN (protein O14908 GN=GIPC1): 1.5016; Direction AURKA_HUMAN (protein O14965): Down; LogFC AURKA_HUMAN (protein O14965): -3.358; Direction DEGS1_HUMAN (protein O15121): Down; LogFC DEGS1_HUMAN (protein O15121): -0.1717; LogFC PGRC2_HUMAN (protein O15173 GN=PGRMC2): 0.7586; LogFC ACOX3_HUMAN (protein O15254 GN=ACOX3): 1.235; Direction OGT1_HUMAN (protein O15294): Down; LogFC OGT1_HUMAN (protein O15294): -0.4734; Direction TM9S1_HUMAN (protein O15321): Down; LogFC TM9S1_HUMAN (protein O15321): -2.186; LogFC TRI18_HUMAN (protein O15344 GN=MID1): 0.3983; Direction SHIP2_HUMAN (protein O15357): Down; LogFC SHIP2_HUMAN (protein O15357): -1.6838; Direction FANCA_HUMAN (protein O15360): Down; LogFC FANCA_HUMAN (protein O15360): -1.214; LogFC MOT4_HUMAN (protein O15427 GN=SLC16A3): 1.9; Direction MRP4_HUMAN (protein O15439): Down; LogFC MRP4_HUMAN (protein O15439): -0.8149; LogFC TPSN_HUMAN (protein O15533 GN=TAPBP): -0.5526; LogFC PSMD3_HUMAN (protein O43242 GN=PSMD3): -0.4067; LogFC PAPS1_HUMAN (protein O43252 GN=PAPSS1): 0.7138; Direction VIP2_HUMAN (protein O43314): Down; LogFC VIP2_HUMAN (protein O43314): -0.766; LogFC TIM44_HUMAN (protein O43615 GN=TIMM44): -0.5983; Direction BUD23_HUMAN (protein O43709): Down; LogFC BUD23_HUMAN (protein O43709): -2.307; Direction AKAP8_HUMAN (protein O43823): Down; LogFC AKAP8_HUMAN (protein O43823): -2.082; Direction GTPB6_HUMAN (protein O43824): Down; LogFC GTPB6_HUMAN (protein O43824): -1.261; Direction KIF1B_HUMAN (protein O60333): Down; LogFC KIF1B_HUMAN (protein O60333): -2; LogFC NRP2_HUMAN (protein O60462 GN=NRP2): -0.6899; LogFC OGA_HUMAN (protein O60502 GN=OGA): 0.8005; LogFC RNBP6_HUMAN (protein O60518 GN=RANBP6): 1.52; LogFC CPNE3_HUMAN (protein O75131 GN=CPNE3): 0.4901; LogFC HIP1R_HUMAN (protein O75146 GN=HIP1R): 2.1312; Direction CLU_HUMAN (protein O75153): Down; LogFC CLU_HUMAN (protein O75153): -0.6987; Direction MPU1_HUMAN (protein O75352): Down; LogFC MPU1_HUMAN (protein O75352): -0.8716; Direction ENTP6_HUMAN (protein O75354): Down; LogFC ENTP6_HUMAN (protein O75354): -1.463; LogFC MTX2_HUMAN (protein O75431 GN=MTX2): -0.4239; Direction UTP20_HUMAN (protein O75691): Down; LogFC UTP20_HUMAN (protein O75691): -1.068; Direction DNJC8_HUMAN (protein O75937): Down; LogFC DNJC8_HUMAN (protein O75937): -0.4544; Direction TSN9_HUMAN (protein O75954): Down; LogFC TSN9_HUMAN (protein O75954): -3.176; LogFC SRP72_HUMAN (protein O76094 GN=SRP72): -0.4411; LogFC IPO13_HUMAN (protein O94829 GN=IPO13): 1.054; LogFC K0754_HUMAN (protein O94854 GN=KIAA0754): -2.89; LogFC GLSK_HUMAN (protein O94925 GN=GLS): 1.0422; Direction SOGA1_HUMAN (protein O94964): Down; LogFC SOGA1_HUMAN (protein O94964): -1.709; Direction UBR5_HUMAN (protein O95071): Down; LogFC UBR5_HUMAN (protein O95071): -1.078; LogFC GBRAP_HUMAN (protein O95166 GN=GABARAP): 0.6601; Direction KIF4A_HUMAN (protein O95239): Down; LogFC KIF4A_HUMAN (protein O95239): -2.337; Direction GOSR1_HUMAN (protein O95249): Down; LogFC GOSR1_HUMAN (protein O95249): -1.68; Direction KAT7_HUMAN (protein O95251): Down; LogFC KAT7_HUMAN (protein O95251): -3.074; Direction SMC2_HUMAN (protein O95347): Down; LogFC SMC2_HUMAN (protein O95347): -0.9053; LogFC SYFM_HUMAN (protein O95363 GN=FARS2): -0.6412; LogFC G6PE_HUMAN (protein O95479 GN=H6PD): -1.176; LogFC ACSL3_HUMAN (protein O95573 GN=ACSL3): 1.019; LogFC ASML_HUMAN (protein O95671 GN=ASMTL): 3.03; Direction STAU1_HUMAN (protein O95793): Down
